Reference: PMC11459959, “Discovery of new acetamide derivatives of 5-indole-1,3,4-oxadiazol-2-thiol as inhibitors of HIV-1 Tat-mediated viral transcription” (Antimicrobial Agents and Chemotherapy, 2024)
Like-named read-outs stand apart in the source and are kept apart here.

Columns and labels:
[1] = system: Tat-mediated LTR transcription; experiment: Dual-reporter assay, F-Luc (Tat-mediated LTR transcription) in bl-DTR cells; type: cell-based, HIV-1; conditions: for IC50: Human immunodeficiency virus 1, 24 h, read-out: IC50 of F-Luc (Tat); for inhibitory effect on Tat (in words): F-Luc
Experimental: (§1) Fig 1 (A) (Top panel) Schematic representation of the primary compound screening using a dual-reporter system. […] (B). […] (Top graphs) bl-DTR cells (1 × 10^4) were treated with twofold serial dilutions of each compound before doxycycline (Dox) addition (final concentration, 50 ng/mL). After 24 h of treatment, the activities of firefly luciferase (F-Luc, red line) and Renilla luciferase (R-Luc, blue line) were determined using the Dual-Glo Luciferase assay system. (Bottom graphs) TZM-bl cells were treated with each indicated compound and subsequently infected with the HIV-1NL4-3 strain at a multiplicity of infection (MOI) of 1. At 48 h after infection, the viral infectivity (purple line) and cell viability (green line) were determined using the Bright-Glo luciferase assay kit and the PrestoBlue Cell Viability Reagent, respectively. […] (C). […] The targeted moieties for the SAR study are marked with dotted-circle lines.
(§2) The Tzm-bl-derived dual Tat reporter; TZM-bl/Tat/Rluc (bl-DTR) cells were established from TZM-bl cells using two Dox-inducible lentiviral expression cassettes cloned with Flag-tagged Tat86 and the R-Luc gene, as described in our previous study ([11]). TZM-bl, A3.01, J1.1, and J-Lat 6.3 cells as well as the HIV-1 molecular clone pNL4-3, pNL(AD8), ARV-resistant HIV-1 strains, and HIV-1NL43-IRES-eGFP (pBR43IeG-nef^+, gifted by Dr. Frank Kirchhoff) ([52]) were provided by the National Institute of Health HIV Reagent Program (NIH, Bethesda, MD, USA). HeLa (CCL-2) and 293T (CRL-3216) cell lines were purchased from the American Type Culture Collection (ATCC, Manassas, VA, USA). The bl-DTR, TZM-bl, HeLa, and 293T cells were cultured in Dulbecco’s modified Eagle’s medium supplemented with 1% penicillin–streptomycin and 10% (vol/vol) heat-inactivated fetal bovine serum (all from Gibco-BRL, Gaithersburg, MD, USA), and 1 µg/mL of puromycin and 200 µg/mL of zeocin were additionally supplemented for the bl-DTR cells. PBMCs were purchased from AllCells (Alameda, CA, USA) and cultured as previously described ([12]). The information on ARV-resistant HIV-1 strains was described in previous reports as follows: NNRTI-resistant 12241 and 12243 ([53]); NRTI-resistant 7396, 7406, and 7407 ([54]); INSTI-resistant 11847 and 11849 ([55], [56]); and PI-resistant 11800 and 11803 ([57]). Each molecular HIV-1 clone was transfected to 293T cells, as previously described ([58]), to obtain infectious HIV-1 particles. Virus-containing cell culture supernatants were collected 3 days after transfection, and filtered through a 0.45-µm membrane filter (Millipore Sigma, Burlington, MA, USA) to remove cell debris. The viral titration was performed as described previously ([59]) with some minor modifications. In brief, 1 × 10^4 TZM-bl cells seeded in 96-well plates were infected with 200 µL of virus-containing medium diluted serially twofold. The incubation was for 2 days and the experiment was performed in triplicate; the infection time minimized the virus spread ([59]). The titration of the infectious viral particles was performed with a ß-Gal staining assay using the ßeta-Galactosidase Staining Kit (Mirus Bio, Madison, WI, USA) following the manufacturer’s protocols. In brief, the infected cells were washed with phosphate-buffered saline (PBS) and fixed using a Cell Fixative Working solution. The cells were washed with PBS and stained using the Cell Staining Working Solution containing X-gal. The infected blue-colored cells were counted under a microscope (100× magnification). The infectious virus titer was determined as a mean value of blue-colored cells count × dilution factor and used for determining the multiplicity of infection (MOI) in each infection experiment.

[2] = system: general cellular transcription/translation (R-Luc); experiment: Dual-reporter assay, R-Luc in bl-DTR cells; type: cell-based; conditions: doxycycline, 24 h
Experimental: as §1, §2

HIV-1NL4-3 = experiment: HIV-1 infectivity in TZM-bl cells (F-Luc); type: cell-based; conditions: for EC50: Human immunodeficiency virus 1, TZM-bl, 48 h, TZM-bl cells infected with HIV-1NL4-3 at MOI 1, 48 h, F-Luc, mean ± SD; for SI (CC50/EC50) / inhibitory effect on HIV-1 infection (in words): TZM-bl cells; for inhibitory effect on HIV-1 infection (in words): HIV-1NL4-3
Experimental: The TZM-bl cells (also referred to as JC53BL-13) expressing human CD4, CXCR4, and CCR5 carrying the F-Luc and lacZ genes downstream of the HIV-1 LTR promoter ([60]) were used to determine the inhibitory effect of the compounds on HIV-1 infection, as previously described ([11], [12], [61]). In brief, 1 × 10^4 cells were cultured in 96-well plates for 24 h and subsequently treated with compounds at the indicated concentrations. Without replacement of the culture medium, the cells were subsequently infected with the HIV-1NL4-3 wild-type or ARV-resistant HIV-1 strains at an MOI of 1 to determine the exact inhibitory effect of compounds on a single-round infection. After 48 h, the inhibitory effect of the compounds was determined using a Bright Glo luciferase assay kit (Promega) or β-Galactosidase Enzyme Assay kit (Promega). The infectivity data were presented as a percentage relative to the dimethyl sulfoxide (DMSO) control (vehicle). Cell viability was determined using the resazurin-based PrestoBlue Cell Viability Reagent (Thermo Fisher Scientific, Waltham, MA, USA) following the manufacturer’s instructions.

[3] = Cell viability of TZM-bl cells (PrestoBlue); type: cell-based; conditions: human
[4] = system: HIV-1NL4-3 IRES-eGFP-nef+; experiment: eGFP-encoding HIV-1 infection of TZM-bl cells; type: cell-based; conditions: 9, 10, 13 1.5 μM, 20, 21, 22 4 μM, seliciclib 10 µM, triptolide 5 nM, DTG 2 nM, EFV 2 nM, 2 days
Experimental: Fig 4 (A) Comparison of the chemical structures between prominent derivatives (9, 10, and 13) and non-functional derivatives (20, 21 and 22). (B) bl-DTR cells were treated with serial dilutions of each compound upon Dox for 24 h. The activities of F-Luc and R-Luc were determined using the Dual-Glo -Luciferase assay system. (C) TZM-bl cells were infected with the HIV-1NL4-3 strain at an MOI of 1 upon treatment of compounds. At 48 h after infection, the viral infectivity and cell viability were determined as described above (Fig. 1). (D) TZM-bl cells were infected with HIV-1NL4-3 IRES-eGFP virus along with the compound treatment. Two days later, GFP-expressing cells were observed by fluorescence microscopy (100× magnification). […] At 48 h after infection, the β-gal activity indicating viral infectivity was determined using the β-gal Enzyme Assay kit. F-Luc activity and cell viability were determined as described above (Fig. 4C). (C and E) The dose-response curves show the relative activity compared with that of the DMSO vehicle (mean ± SD; n = 3).

For `Cc1[nH]c2ccc(-c3nnc(SC(C)C(=O)N4CCCCC4)n3CCc3ccccc3)cc2c1C` (stereo not shown) [Compound 30, 2-((5-(2,3-Dimethyl-1H-indol-5-yl)-4-phenethyl-4H-1,2,4-triazol-3-yl)thio)-1-(piperidin-1-yl)propan-1-one], the IC50 [1] was 1.74 ± 0.06 µM, the “Relative R-Luc activity at IC50 of F-Luc” value [2] was 100 and the EC50 (HIV-1NL4-3; read-out: EC50) was 2.01 ± 0.11 µM. The “SI (CC50/EC50)” value (HIV-1NL4-3) was 11.26 and the CC50 at 48 h [3] was 22.6 ± 0.47 µM.

For `CC(=O)O[C@@]12C[C@@H](C)[C@@]3(O)[C@@H](C=C(CO)C[C@]4(O)C(=O)C(C)=C[C@@H]34)[C@@H]1C2(C)C` [prostratin, reference compound], the “LTR activity increase induced by adding prostratin” value ([1]; bl-DTR cells, Dox, sustained in the presence of compounds 9 or 13) was ~ 1.5 fold.

For `Cc1[nH]c2ccc(-c3nnc(SCCN4CCCCC4)o3)cc2c1C` [Compound 24, 2-(2,3-Dimethyl-1H-indol-5-yl)-5-((2-(piperidin-1-yl)ethyl)thio)-1,3,4-oxadiazole], the IC50 [1] was 1.97 ± 0.03 µM, the “inhibitory effect on Tat (in words)” value ([1]; bl-DTR cells) was “modest inhibitory effect” and the “Relative R-Luc activity at IC50 of F-Luc” value [2] was greater than 100. For the same compound, the EC50 (HIV-1NL4-3; read-out: EC50) was 3.02 ± 0.09 µM, the “SI (CC50/EC50)” value (HIV-1NL4-3) was 13.34 and the CC50 at 48 h [3] was 40.3 ± 1.74 µM.

In the case of `Cc1[nH]c2ccc(-c3nnc(S(=O)(=O)CC(=O)N4CCCC4)o3)cc2c1C` [Compound 22, 2-((5-(2,3-Dimethyl-1H-indol-5-yl)-1,3,4-oxadiazol-2-yl)sulfonyl)-1-(pyrrolidin-1-yl)ethan-1-one], the “inhibition of viral-expressed eGFP signal” value [4] is reported as “did not”.

For `Cc1[nH]c2ccc(-c3nnc(SC(C)C(=O)N4CCCC4)o3)cc2c1C` (stereo not shown) [Compound 14, 2-((5-(2,3-Dimethyl-1H-indol-5-yl)-1,3,4-oxadiazol-2-yl)thio)-1-(pyrrolidin-1-yl)propan-1-one], the IC50 [1] was 3.82 ± 0.12 µM, the “Relative R-Luc activity at IC50 of F-Luc” value [2] was greater than 100 and the EC50 (HIV-1NL4-3; read-out: EC50) was 3.31 ± 0.28 µM. For the same compound, the “SI (CC50/EC50)” value (HIV-1NL4-3) was 17.44 and the CC50 at 48 h [3] was 57.7 ± 6.01 µM.

For “1-(Pyrrolidin-1-yl)-2-((5-(1,2,3-trimethyl-1H-indol-5-yl)-1,3,4-oxadiazol-2-yl)thio)ethan-1-one [Compound 19]”, the “inhibitory effect on Tat (in words)” value ([1]; bl-DTR cells) was “did not demonstrate any biological effect” and the “inhibitory effect on HIV-1 infection (in words)” value (HIV-1NL4-3) was “did not demonstrate any biological effect”.

In the case of “2-((5-(2,3-Dimethyl-1H-indol-5-yl)-1,3,4-oxadiazol-2-yl)thio)-1-(pyrrolidin-1-yl)propan-1-one [Compound 15]”, the “inhibitory effect on Tat (in words)” value ([1]; bl-DTR cells) is reported as “increased” and the “inhibitory effect on HIV-1 infection (in words)” value (HIV-1NL4-3) is reported as “increased”.

In the case of `Cc1[nH]c2ccc(-c3nnc(S)o3)cc2c1C` [Compound 3b, 5-(2,3-Dimethyl-1H-indol-5-yl)-1,3,4-oxadiazole-2-thiol], the “inhibitory effect on Tat (in words)” value ([1]; bl-DTR cells) is reported as “did not exhibit a substantial biological effect” and the “inhibitory effect on HIV-1 infection (in words)” value (HIV-1NL4-3) is reported as “did not exhibit a substantial biological effect”.

With `Cc1[nH]c2ccc(-c3nnc(SC(C)(C)C(=O)N4CCCCC4)o3)cc2c1C` [Compound 12, 2-((5-(2,3-Dimethyl-1H-indol-5-yl)-1,3,4-oxadiazol-2-yl)thio)-2-methyl-1-(piperidin-1-yl)propan-1-one] the “inhibitory effect on Tat (in words)” value ([1]; bl-DTR cells) was “increased” and the “inhibitory effect on HIV-1 infection (in words)” value (HIV-1NL4-3) was “increased”.

For `Cc1[nH]c2ccc(-c3nnc(SCCC(=O)O)o3)cc2c1C` [Compound B, 3-((5-(2,3-Dimethyl-1H-indol-5-yl)-1,3,4-oxadiazol-2-yl)thio)propanoic acid], the IC50 [1] was 2.29 ± 0.08 µM, the “Relative R-Luc activity at IC50 of F-Luc” value [2] was greater than 100 and the EC50 (HIV-1NL4-3; read-out: EC50) was 2.63 ± 0.34 µM. The “SI (CC50/EC50)” value (HIV-1NL4-3) was 16.97 and the CC50 at 48 h [3] was 44.6 ± 5.68 µM.

For `O=C(O)CCSc1nnc(-c2cccc3ccccc23)o1` [Compound A, 3-((5-(Naphthalen-1-yl)-1,3,4-oxadiazol-2-yl)thio)propanoic acid], the IC50 [1] was 4 µM and the EC50 (HIV-1NL4-3) was 4.19 µM.

For `Cc1[nH]c2ccc(-c3nnc(SCCN4CCCC4)o3)cc2c1C` [Compound 25, 2-(2,3-Dimethyl-1H-indol-5-yl)-5-((2-(pyrrolidin-1-yl)ethyl)thio)-1,3,4-oxadiazole], the “inhibitory effect on Tat (in words)” value ([1]; bl-DTR cells) was “no effect was observed” and the “inhibitory effect on HIV-1 infection (in words)” value (HIV-1NL4-3) was “no effect was observed”.

In the case of `Cc1[nH]c2ccc(-c3nnc(SC(C)C(=O)N4CCCCC4)o3)cc2c1C` (stereo not shown) [Compound 11, 2-((5-(2,3-Dimethyl-1H-indol-5-yl)-1,3,4-oxadiazol-2-yl)thio)-1-(piperidin-1-yl)propan-1-one], the IC50 [1] is reported as 0.43 ± 0.03 µM, the “Relative R-Luc activity at IC50 of F-Luc” value [2] is reported as 100 and the EC50 (HIV-1NL4-3; read-out: EC50) is reported as 0.4 ± 0.05 µM. For the same compound, the “SI (CC50/EC50)” value (HIV-1NL4-3) was 67.85 and the CC50 at 48 h [3] was 27.1 ± 1.95 µM.

For `Cc1[nH]c2ccc(-c3nnc(SCC(=O)N4CCCC4)n3CCc3ccccc3)cc2c1C` [Compound 31, 2-((5-(2,3-Dimethyl-1H-indol-5-yl)-4-phenethyl-4H-1,2,4-triazol-3-yl)thio)-1-(pyrrolidin-1-yl)ethan-1-one], the IC50 [1] was 3.42 ± 0.12 µM, the “Relative R-Luc activity at IC50 of F-Luc” value [2] was greater than 100 and the EC50 (HIV-1NL4-3; read-out: EC50) was 5.89 ± 0.05 µM. For the same compound, the “SI (CC50/EC50)” value (HIV-1NL4-3) was 9.39 and the CC50 at 48 h [3] was 55.3 ± 10.2 µM.

With `Cc1[nH]c2ccc(-c3nnc(SCC(=O)N4CCCCC4)n3C)cc2c1C` [Compound 28, 2-((5-(2,3-Dimethyl-1H-indol-5-yl)-4-methyl-4H-1,2,4-triazol-3-yl)thio)-1-(piperidin-1-yl)ethan-1-one] the IC50 [1] was 13.7 ± 0.53 µM, the “inhibitory effect on Tat (in words)” value ([1]; bl-DTR cells) was “critical decrease of potency” and the “Relative R-Luc activity at IC50 of F-Luc” value [2] was 90. For the same compound, the EC50 (HIV-1NL4-3; read-out: EC50) was 21.2 ± 1.47 µM, the “SI (CC50/EC50)” value (HIV-1NL4-3) was 1.74 and the “inhibitory effect on HIV-1 infection (in words)” value (HIV-1NL4-3) was “critical decrease of potency”. The CC50 at 48 h [3] was 36.8 ± 12.6 µM.
